From US9006265B2, “Substituted fused pyrimidinones and dihydropyrimidinones” (Bayer Intellectual Property GmbH, priority 2010, dated 2015) come the findings set out here.

The structures appear in SMILES notation.

For data set [1], the system named is BRSNS. In words: Drought stress test on crop plants in greenhouse, spray application. The format is in vivo, Brassica napes. Conditions: dosage 25 g/ha, efficacy = percentage reduction in intensity of damage, mean of three results. Here is the method:
(§1) Seeds of monocotyledonous and dicotyledonous crop plants were laid out in sandy loam in wood-fiber pots, covered with soil and cultivated in a greenhouse under good growth conditions. The test plants were treated at the early leaf stage (BBCH10-BBCH13). To ensure uniform water supply before commencement of stress, the potted plants were supplied with the maximum amount of water immediately beforehand by dam irrigation and, after application, transferred in plastic inserts in order to prevent subsequent, excessively rapid drying. The inventive compounds, formulated in the form of wettable powders (WP), wettable granules (WG), suspension concentrates (SC) or emulsion concentrates (EC), were sprayed onto the green parts of the plants as an aqueous suspension at an equivalent water application rate of 600 l/ha with addition of 0.2% wetting agent (agrotin). Substance application is followed immediately by stress treatment of the plants (cold or drought stress). For cold stress treatment, the plants were kept under the following controlled conditions: • “day”: 12 hours with illumination at 8° C. • “night”: 12 hours without illumination at 1° C.
(§2) Drought stress was induced by gradual drying out under the following conditions: • “day”: 14 hours with illumination at 26° C. • “night”: 10 hours without illumination at 18° C.
(§3) The duration of the respective stress phases was guided mainly by the state of the untreated (=treated with blank formulation without test compound), stressed control plants and thus varied from crop to crop. It was ended (by re-irrigating or transfer to a greenhouse with good growth conditions) as soon as irreversible damage was observed on the untreated, stressed control plants. In the case of dicotyledonous crops, for example oilseed rape and soybeans, the duration of the drought stress phase varied between 3 and 5 days, in the case of monocotyledonous crops, for example wheat, barley or corn, between 6 and 10 days. The duration of the cold stress phase varied between 12 and 14 days.
(§4) The end of the stress phase was followed by an approx. 5-7-day recovery phase, during which the plants were once again kept under good growth conditions in a greenhouse. In order to rule out any influence of the effects observed by any fungicidal action of the test compounds, it was additionally ensured that the tests proceeded without fungal infection and without infection pressure.
(§5) After the recovery phase had ended, the intensities of damage were rated in visual comparison to untreated, unstressed controls of the same age (in the case of drought stress) or the same growth stage (in the case of cold stress). The intensity of damage was first assessed as a percentage (100%=plants have died, 0%=like control plants). These values were then used to calculate the efficacy of the test compounds (=percentage reduction in the intensity of damage as a result of substance application) by the following formula:
(§6) [formula] EF: efficacy (%) DVus: damage value of the untreated, stressed control DVts: damage value of the plants treated with test compound
(§7) The tables A-1 and B-1 to B-4 below list mean values in each case from three results of the same test.
(§8) Efficacies of selected compounds of the formula (I) under drought stress using the examples of HORVS, BRSNS, ZEAMX und TRZAS: […]

Data set [2] relates to ZEAMX. In words: Cold stress test on crop plants in greenhouse, spray application. The format is in vivo, Zea mays. Conditions: dosage 250 g/ha, efficacy = percentage reduction in intensity of damage, mean of three results. Here is the method:
Seeds of monocotyledonous and dicotyledonous crop plants were laid out in sandy loam in wood-fiber pots, covered with soil and cultivated in a greenhouse under good growth conditions. The test plants were treated at the early leaf stage (BBCH10-BBCH13). To ensure uniform water supply before commencement of stress, the potted plants were supplied with the maximum amount of water immediately beforehand by dam irrigation and, after application, transferred in plastic inserts in order to prevent subsequent, excessively rapid drying. The inventive compounds, formulated in the form of wettable powders (WP), wettable granules (WG), suspension concentrates (SC) or emulsion concentrates (EC), were sprayed onto the green parts of the plants as an aqueous suspension at an equivalent water application rate of 600 l/ha with addition of 0.2% wetting agent (agrotin). Substance application is followed immediately by stress treatment of the plants (cold or drought stress). For cold stress treatment, the plants were kept under the following controlled conditions: • “day”: 12 hours with illumination at 8° C. • “night”: 12 hours without illumination at 1° C. The duration of the respective stress phases was guided mainly by the state of the untreated (=treated with blank formulation without test compound), stressed control plants and thus varied from crop to crop. It was ended (by re-irrigating or transfer to a greenhouse with good growth conditions) as soon as irreversible damage was observed on the untreated, stressed control plants. In the case of dicotyledonous crops, for example oilseed rape and soybeans, the duration of the drought stress phase varied between 3 and 5 days, in the case of monocotyledonous crops, for example wheat, barley or corn, between 6 and 10 days. The duration of the cold stress phase varied between 12 and 14 days. The end of the stress phase was followed by an approx. 5-7-day recovery phase, during which the plants were once again kept under good growth conditions in a greenhouse. In order to rule out any influence of the effects observed by any fungicidal action of the test compounds, it was additionally ensured that the tests proceeded without fungal infection and without infection pressure. After the recovery phase had ended, the intensities of damage were rated in visual comparison to untreated, unstressed controls of the same age (in the case of drought stress) or the same growth stage (in the case of cold stress). The intensity of damage was first assessed as a percentage (100%=plants have died, 0%=like control plants). These values were then used to calculate the efficacy of the test compounds (=percentage reduction in the intensity of damage as a result of substance application) by the following formula: [formula] EF: efficacy (%) DVus: damage value of the untreated, stressed control DVts: damage value of the plants treated with test compound The tables A-1 and B-1 to B-4 below list mean values in each case from three results of the same test. Efficacies of selected compounds of the formula (I) under cold stress using the example of ZEAMX: […]

Data set [3] has as its system ZEAMX. Briefly: Drought stress test on crop plants in greenhouse, spray application. The format is in vivo, Zea mays. Conditions: dosage 250 g/ha, efficacy = percentage reduction in intensity of damage, mean of three results. Here is the method:
as §1, §2, §3, §4, §5, §6, §7, §8

Data set [4] deals with TRZAS. Described as above. Particulars: dosage 25 g/ha, efficacy = percentage reduction in intensity of damage, mean of three results. The format is in vivo, Triticum aestivum. Here is the method:
as §1, §2, §3, §4, §5, §6, §7, §8

The subject of data set [5] is HORVS. In words: Drought stress test on crop plants in greenhouse, spray application. Conditions: dosage 500 g/ha, efficacy = percentage reduction in intensity of damage, mean of three results. The format is in vivo, Hordeum vulgare. As to the method:
Seeds of monocotyledonous and dicotyledonous crop plants were laid out in sandy loam in wood-fiber pots, covered with soil and cultivated in a greenhouse under good growth conditions. The test plants were treated at the early leaf stage (BBCH10-BBCH13). To ensure uniform water supply before commencement of stress, the potted plants were supplied with the maximum amount of water immediately beforehand by dam irrigation and, after application, transferred in plastic inserts in order to prevent subsequent, excessively rapid drying. The inventive compounds, formulated in the form of wettable powders (WP), wettable granules (WG), suspension concentrates (SC) or emulsion concentrates (EC), were sprayed onto the green parts of the plants as an aqueous suspension at an equivalent water application rate of 600 l/ha with addition of 0.2% wetting agent (agrotin). Substance application is followed immediately by stress treatment of the plants (cold or drought stress). […]
After the recovery phase had ended, the intensities of damage were rated in visual comparison to untreated, unstressed controls of the same age (in the case of drought stress) or the same growth stage (in the case of cold stress). The intensity of damage was first assessed as a percentage (100%=plants have died, 0%=like control plants). […]

As for `NC(=O)c1cnn2c1[nH]c(=O)c1ccccc12` [I.3-31], in data set [1], the “EF (BRSNS)” value was greater than 5%. In addition, the “EF (ZEAMX)” value in data set [2] and in data set [3] was greater than 5% each time. In addition, the “EF (TRZAS)” value in data set [4] is given as greater than 5%.
`O=C1NC(c2ccc(Cl)cc2)Nc2ccccc21` (stereo not shown) [I.4-71, 2-(4-Chlorophenyl)-2,3-dihydroquinazolin-4(1H)-one] displayed a melting point of 190 °C.
With `Cc1nc2c([N+](=O)[O-])cccc2c(=O)[nH]1` [I.1-32], the “EF (HORVS)” value in data set [5] is greater than 5%.
Take `Cc1ccc(-c2nc3c(C)cccc3c(=O)[nH]2)c(Cl)c1` [I.1-505, 2-(2-Chloro-4-methylphenyl)-8-methylquinazolin-4(3H)-one]: the melting point was determined as 234 °C.

By melting point is commonly meant the temperature, or range, at which the solid turns liquid.
